What follows are compounds tested against T1, JAK2 (JH1domain-catalytic, Y1007F,Y1008F) kinase (Homo sapiens, UniProt O60674, Y1007F/Y1008F) (assay: JAK2 JH1 Domain Binding Assay). Details: qPCR readout.
T1 construct: JAK2 (JH1domain-catalytic, Y1007F,Y1008F) kinase was expressed as N-terminal fusion; made in house; host or cells: transiently transfected HEK293 cells
T1 sequence (O60674 849-1124 Y1007F/Y1008F limits assumed): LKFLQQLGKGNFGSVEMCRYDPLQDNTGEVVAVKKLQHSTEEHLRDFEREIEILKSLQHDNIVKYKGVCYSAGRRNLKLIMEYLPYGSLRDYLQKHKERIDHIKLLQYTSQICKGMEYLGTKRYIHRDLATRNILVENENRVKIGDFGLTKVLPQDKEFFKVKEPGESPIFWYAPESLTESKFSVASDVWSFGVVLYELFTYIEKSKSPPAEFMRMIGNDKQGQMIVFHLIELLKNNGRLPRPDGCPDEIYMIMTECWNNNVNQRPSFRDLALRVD

Kd [nM]	Structure (SMILES)
10 to 50	CCn1c(C(C)(C)C)ncc(Nc2nc3ncc(Oc4cnn5ccncc45)c(Cl)c3n2C)c1=O [Example I-164, 2-(tert-butyl)-5-((7-chloro-1-methyl-6-(pyrazolo[1,5-a]pyrazin-3-yloxy)-1H-imidazo[4,5-b]pyridin-2-yl)amino)-3-ethylpyrimidin-4(3H)-one]
1000 to 5000	Cn1c(=O)c(Nc2nc3ncc(Oc4cnn5ccncc45)c(Cl)c3n2C)cn(C2CC2)c1=O [Example I-165, 5-((7-chloro-1-methyl-6-(pyrazolo[1,5-a]pyrazin-3-yloxy)-1H-imidazo[4,5-b]pyridin-2-yl)amino)-1-cyclopropyl-3-methylpyrimidine-2,4(1H,3H)-dione]
< 10	Cn1cc(C(F)(F)F)cc(Nc2nc3ncc(Oc4cnn5ccc(N6CCOCC6)cc45)c(Cl)c3n2C)c1=O [Example I-166, 3-((7-chloro-1-methyl-6-((5-morpholinopyrazolo[1,5-a]pyridin-3-yl)oxy)-1H-imidazo[4,5-b]pyridin-2-yl)amino)-1-methyl-5-(trifluoromethyl)pyridin-2(1H)-one]
< 10	Cn1c(Nc2cc(C(F)(F)F)cn([C@H]3C[C@@H](O)C3)c2=O)nc2ncc(Oc3cnn4ccccc34)c(C#N)c21 [Example I-167, cis-2-((1-(3-hydroxycyclobutyl)-2-oxo-5-(trifluoromethyl)-1,2-dihydropyridin-3-yl)amino)-1-methyl-6-(pyrazolo[1,5-a]pyridin-3-yloxy)-1H-imidazo[4,5-b]pyridine-7-carbonitrile]
10 to 50	Cn1c(Nc2cc(C(C)(C)C)n(C3COC3)n2)nc2ncc(Oc3cnn4ccncc34)c(C#N)c21 [Example I-168, 2-((5-(tert-butyl)-1-(oxetan-3-yl)-1H-pyrazol-3-yl)amino)-1-methyl-6-(pyrazolo[1,5-a]pyrazin-3-yloxy)-1H-imidazo[4,5-b]pyridine-7-carbonitrile]
< 10	CN1CC[C@H](n2nc(Nc3nc4ncc(Oc5cnn6cc(F)ccc56)c(Cl)c4n3C)cc2C(C)(C)C)C1 [Example I-169, (S)—N-(5-(tert-butyl)-1-(1-methylpyrrolidin-3-yl)-1H-pyrazol-3-yl)-7-chloro-6-((6-fluoropyrazolo[1,5-a]pyridin-3-yl)oxy)-1-methyl-1H-imidazo[4,5-b]pyridin-2-amine]
10 to 50	CN1CC[C@@H](n2nc(Nc3nc4ncc(Oc5cnn6cc(F)ccc56)c(Cl)c4n3C)cc2C(C)(C)C)C1 [Example I-170]
< 10	CNc1nccn2ncc(Oc3cnc4nc(Nc5cc(C(F)(F)F)cn(-c6cnn(C)c6)c5=O)n(C)c4c3Cl)c12 [Example I-171, 3-((7-chloro-1-methyl-6-((4-(methylamino)pyrazolo[1,5-a]pyrazin-3-yl)oxy)-1H-imidazo[4,5-b]pyridin-2-yl)amino)-1-(1-methyl-1H-pyrazol-4-yl)-5-(trifluoromethyl)pyridin-2(1H)-one]
< 10	CN1CCN(c2cc(Nc3nc4ncc(Oc5cnn6ccncc56)c(Cl)c4n3C)cc(C(F)(F)F)c2)CC1 [Example I-172, 7-chloro-1-methyl-N-(3-(4-methylpiperazin-1-yl)-5-(trifluoromethyl)phenyl)-6-(pyrazolo[1,5-a]pyrazin-3-yloxy)-1H-imidazo[4,5-b]pyridin-2-amine]

The remaining lines, values behind:

Structure (SMILES)	Kd [nM]
CN1C(=O)c2cc(Nc3nc4ncc(Oc5cnn6ccncc56)c(Cl)c4n3C)cc(C(F)(F)F)c2C1(C)C [Example I-154, 6-((7-chloro-1-methyl-6-(pyrazolo[1,5-a]pyrazin-3-yloxy)-1H-imidazo[4,5-b]pyridin-2-yl)amino)-2,3,3-trimethyl-4-(trifluoromethyl)isoindolin-1-one]	< 10
COCCOc1ccc2c(Oc3cnc4nc(Nc5cc(C6CC6)cn(CCO)c5=O)n(C)c4c3Cl)cnn2c1 [Example I-155, 3-((7-chloro-6-((6-(2-methoxyethoxy)pyrazolo[1,5-a]pyridin-3-yl)oxy)-1-methyl-1H-imidazo[4,5-b]pyridin-2-yl)amino)-5-cyclopropyl-1-(2-hydroxyethyl)pyridin-2(1H)-one]	< 10
CC(=O)N1CC2(CC(n3nc(Nc4nc5ncc(Oc6cnn7ccncc67)c(Cl)c5n4C)cc3C(F)(F)F)C2)C1 [Example I-156, 1-(6-(3-((7-chloro-1-methyl-6-(pyrazolo[1,5-a]pyrazin-3-yloxy)-1H-imidazo[4,5-b]pyridin-2-yl)amino)-5-(trifluoromethyl)-1H-pyrazol-1-yl)-2-azaspiro[3.3]heptan-2-yl)ethan-1-one]	< 10
Cn1c(Nc2cc(C(F)(F)F)cn(-c3cccnc3)c2=O)nc2ncc(Oc3cnn4ccccc34)c(C#N)c21 [Example I-157, 1-methyl-2-((2-oxo-5-(trifluoromethyl)-2H-[1,3′-bipyridin]-3-yl)amino)-6-(pyrazolo[1,5-a]pyridin-3-yloxy)-1H-imidazo[4,5-b]pyridine-7-carbonitrile]	< 10
Cn1c(Nc2cc(C(C)(C)C)n([C@H]3C[C@H](O)C3)n2)nc2ncc(Oc3cnn4ccncc34)c(C#N)c21 [Example I-158, trans-2-((5-(tert-butyl)-1-(3-hydroxycyclobutyl)-1H-pyrazol-3-yl)amino)-1-methyl-6-(pyrazolo[1,5-a]pyrazin-3-yloxy)-1H-imidazo[4,5-b]pyridine-7-carbonitrile]	< 10
Cn1c(Nc2cc(C(F)(F)F)cn(CCCN3CCOCC3)c2=O)nc2ncc(Oc3cnn4ccccc34)c(C#N)c21 [Example I-159, 1-methyl-2-((1-(3-morpholinopropyl)-2-oxo-5-(trifluoromethyl)-1,2-dihydropyridin-3-yl)amino)-6-(pyrazolo[1,5-a]pyridin-3-yloxy)-1H-imidazo[4,5-b]pyridine-7-carbonitrile]	< 10
Cn1c(Nc2cc(C(F)(F)F)cn(CCO)c2=O)nc2ncc(Oc3cnn4ccccc34)c(C#N)c21 [Example I-160, 2-((1-(2-hydroxyethyl)-2-oxo-5-(trifluoromethyl)-1,2-dihydropyridin-3-yl)amino)-1-methyl-6-(pyrazolo[1,5-a]pyridin-3-yloxy)-1H-imidazo[4,5-b]pyridine-7-carbonitrile]	< 10
Cn1cc(-n2cc(C(F)(F)F)cc(Nc3nc4ncc(Oc5cnn6cc(F)ccc56)c(Cl)c4n3C)c2=O)cn1 [Example I-161, 3-((7-chloro-6-((6-fluoropyrazolo[1,5-a]pyridin-3-yl)oxy)-1-methyl-1H-imidazo[4,5-b]pyridin-2-yl)amino)-1-(1-methyl-1H-pyrazol-4-yl)-5-(trifluoromethyl)pyridin-2(1H)-one]	< 10
Cn1c(Nc2cc(C(F)(F)F)cn([C@H]3C[C@@H](O)C3)c2=O)nc2ncc(Oc3cnn4cc(F)ccc34)c(Cl)c21 [Example I-162, cis-3-((7-chloro-6-((6-fluoropyrazolo[1,5-a]pyridin-3-yl)oxy)-1-methyl-1H-imidazo[4,5-b]pyridin-2-yl)amino)-1-(3-hydroxycyclobutyl)-5-(trifluoromethyl)pyridin-2(1H)-one]	< 10
Cn1c(Nc2cc(C(F)(F)F)cn(CCO)c2=O)nc2ncc(Oc3cnn4cc(F)ccc34)c(Cl)c21 [Example I-163, 3-((7-chloro-6-((6-fluoropyrazolo[1,5-a]pyridin-3-yl)oxy)-1-methyl-1H-imidazo[4,5-b]pyridin-2-yl)amino)-1-(2-hydroxyethyl)-5-(trifluoromethyl)pyridin-2(1H)-one]	< 10

— patent US12043632B2, “6-heteroaryloxy benzimidazoles and azabenzimidazoles as JAK2 inhibitors” (Ajax Therapeutics, Inc., priority 2020, dated 2024)
